In patent publication US6610708B1, “Cyclic amino compounds” (Sankyo Company, Limited, priority 1998, dated 2003):

Tests used:
Human Platelets = assay: Antiaggregatory action in human platelets (ADP-induced aggregation in platelet-rich plasma); format: cell-based; conditions: human PRP; for inhibition at 10 µg/mL / inhibition at 30 µg/mL / inhibition at 100 µg/mL: Platelet, read-out: Test 1 (% inhibition) of platelet aggregation
Experimental: Antiaggregatory Action in Human Platelets
Platelet aggregation was measured using an automatic platelet aggregometer (PAM-8C, Mebanix) using the method of G.V.R. Born [Nature, 194, 927-929 ([…])] with a slight modification. Blood was collected from the antecubital vein of healthy volunteers who had not taken any medications for two weeks using 3.8% sodium citrate as an anticoagulant ( 1/9 volumes of blood). Platelet-rich plasma (PRP) was obtained by centrifugation (CR5DL, Hitachi) at 200× g for 15 min at room temperature. Platelet-poor plasma (PPP) was obtained by centrifugation of the remaining blood at 2,000× g for 10 min at room temperature. Platelet counts in PRP were measured by an automatic hematology analyzer (K-1000, Toa Iyo Denshi), and adjusted to 3×10^8 /ml by adding PPP. PRP prepared as described above was used for the platelet aggregation experiment. PRP (0.24 ml) containing a test compound was added to a cuvette and set placed in the platelet aggregometer. After pre-incubation for 1.5 min at 37° C., 0.01 ml of 0.25 mM ADP were added to the cuvette to induce platelet aggregation. Platelet aggregation was monitored for 10 min.
Antiaggregatory action of the test compound was determined as a percent inhibition (%) against platelet aggregation of a control (free of the test compound).

| melting point [°C] | Compound | inhibition at 10 µg/mL (Human Platelets; 10 μg/ml test compound) [%] | inhibition at 30 µg/mL (Human Platelets; 30 μg/ml test compound) [%] | inhibition at 100 µg/mL (Human Platelets; 100 μg/ml test compound) [%] | also measured |
| --- | --- | --- | --- | --- | --- |
|  | O=C(C1CC1)C(c1ccccc1F)N1CCC(SS(=O)(=O)c2ccc(F)cc2)CC1 (stereo not drawn) [Example 11 (b), 1-(α-Cyclopropylcarbonyl-2-fluorobenzyl)-4-(4-fluorophenylsulfonylthio)-piperidine] | 15.5 | 98 | 92.5 |  |
| 105 to 111 | C[S+]([O-])SC1CCN(C(C(=O)C2CC2)c2ccccc2F)CC1 (stereo not drawn) [Example 15, 1-(α-Cyclopropylcarbonyl-2-fluorobenzyl)-4-methylsulfinylthiopiperidine] |  |  |  |  |
| 96 to 103 | Cc1ccc(SSC2CCN(C(C(=O)C3CC3)c3ccccc3F)CC2)cc1 (stereo not drawn) [Example 16, 1-(α-Cyclopropylcarbonyl-2-fluorobenzyl)-4-(4-methylphenyldisulfanyl)-piperidine] |  |  |  |  |
| 100 to 115 | COC(=O)C(c1ccccc1Cl)N1CCC(SS(=O)(=O)c2ccc(C)cc2)CC1 (stereo not drawn) [Example 2, 1-(2-Chloro-α-methoxycarbonylbenzyl)-4-(4-methylphenylsulfonylthio)-piperidine] |  |  |  |  |
|  | O=C(C1CC1)C(c1ccccc1F)N1CCC(SS(=O)(=O)c2ccc(Cl)cc2)CC1 (stereo not drawn) [Example 10 (b), 4-(4-Chlorophenylsulfonylthio)-1-(α-cyclopropylcarbonyl-2-fluorobenzyl)-piperidine] | 35.2 | 96.2 | 98.8 |  |
|  | Cc1ccc([S+]([O-])SC2CCN(C(C(=O)C3CC3)c3ccccc3F)C2)cc1 (stereo not drawn) [Example 14 (b), 1-(α-Cyclopropylcarbonyl-2-fluorobenzyl)-3-(4-methylphenylsulfinylthio)-pyrrolidine] | 28.6 | 64 | 95.8 |  |
| 106 to 109 | COC(=O)C(c1ccccc1F)N1CCC(SS(=O)(=O)c2ccc(C)cc2)CC1 (stereo not drawn) [Example 3, 1-(2-Fluoro-α-methoxycarbonylbenzyl)-4-(4-methylphenylsulfonylthio)-piperidine] |  |  |  |  |
| 110 to 116 | O=C(C1CC1)C(c1ccccc1F)N1CCC(SSc2ccccc2[N+](=O)[O-])CC1 (stereo not drawn) [Example 18, 1-(α-Cyclopropylcarbonyl-2-fluorobenzyl)-4-(2-nitrophenyldisulfanyl)-piperidine] |  |  |  |  |
|  | O=C(C1CC1)C(c1ccccc1F)N1CCC(SS(=O)(=O)c2ccccc2)CC1 (stereo not drawn) [Example 9 (b), 1-(α-Cyclopropylcarbonyl-2-fluorobenzyl)-4-phenylsulfonylthiopiperidine] | 23.4 | 97.3 | 94 |  |
| 98 to 106 | Cc1ccc(S(=O)(=O)SC2CCN(C(C(=O)C3CC3)c3ccccc3F)C2)cc1 (stereo not drawn) [Example 4, 1-(α-Cyclopropylcarbonyl-2-fluorobenzyl)-3-(4-methylphenylsulfonylthio)-pyrrolidine] |  |  |  |  |
|  | Cc1ccc(S(=O)(=O)SC2CCN(C(C(=O)C3CC3)c3ccccc3F)C2)cc1 (stereo not drawn) [Example 4 (d), 1-(α-Cyclopropylcarbonyl-2-fluorobenzyl)-3-(4-methylphenylsulfonylthio)-pyrrolidine] | 30.6 | 77.6 | 99.5 |  |
|  | COC(=O)C(c1ccccc1Cl)N1CCC(SS(=O)(=O)c2ccc(C)cc2)CC1 (stereo not drawn) [Example 2 (d), 1-(2-Chloro-α-methoxycarbonylbenzyl)-4-(4-methylphenylsulfonylthio)-piperidine] | 32.8 | 97.1 | 98 |  |
|  | C[S+]([O-])SC1CCN(C(C(=O)C2CC2)c2ccccc2F)CC1 (stereo not drawn) [Example 15 (b), 1-(α-Cyclopropylcarbonyl-2-fluorobenzyl)-4-methylsulfinylthiopiperidine] | 12.3 | 28.1 | 71.1 |  |
| 110 to 121 | O=C(C1CC1)C(c1ccccc1F)N1CCC(SS(=O)(=O)c2ccc(F)cc2)CC1 (stereo not drawn) [Example 11, 1-(α-Cyclopropylcarbonyl-2-fluorobenzyl)-4-(4-fluorophenylsulfonylthio)-piperidine] |  |  |  |  |
| 113 to 122 | COc1ccc(S(=O)(=O)SC2CCN(C(C(=O)C3CC3)c3ccccc3F)CC2)cc1 (stereo not drawn) [Example 12, 1-(α-Cyclopropylcarbonyl-2-fluorobenzyl)-4-(4-methoxyphenylsulfonylthio)piperidine] |  |  |  |  |
| 120 to 127 | O=C(C1CC1)C(c1ccccc1F)N1CCC(SSc2ccc([N+](=O)[O-])cc2[N+](=O)[O-])CC1 (centres unmarked) |  |  |  |  |
| 108 to 116 | O=C(C1CC1)C(c1ccccc1F)N1CCC(SS(=O)(=O)c2ccc(Cl)cc2)CC1 (stereo not drawn) [Example 10, 4-(4-Chlorophenylsulfonylthio)-1-(α-cyclopropylcarbonyl-2-fluorobenzyl)-piperidine] |  |  |  |  |
| 105 to 116 | O=C(C1CC1)C(c1ccccc1F)N1CCC(SS(=O)(=O)c2ccccc2)CC1 (stereo not drawn) [Example 9, 1-(α-Cyclopropylcarbonyl-2-fluorobenzyl)-4-phenylsulfonylthiopiperidine] |  |  |  |  |
|  | Cc1ccc(S(=O)(=O)SC2CN(C(C(=O)C3CC3)c3ccccc3F)C2)cc1 (stereo not drawn) [Example 5 (d), 1-(α-Cyclopropylcarbonyl-2-fluorobenzyl)-3-(4-methylphenylsulfonylthiol)-azetidine] |  |  |  | Test 1 (% inhibition) of platelet aggregation (Human Platelets; 10 μg/ml test compound): 37.1%; Test 1 (% inhibition) of platelet aggregation (Human Platelets; 30 μg/ml test compound): 98.4%; Test 1 (% inhibition) of platelet aggregation (Human Platelets; 100 μg/ml test compound): 99.6% |
|  | COC(=O)C(c1ccccc1F)N1CCC(SS(=O)(=O)c2ccc(C)cc2)CC1 (stereo not drawn) [Example 3 (d), 1-(2-Fluoro-α-methoxycarbonylbenzyl)-4-(4-methylphenylsulfonylthio)-piperidine] | 24.4 | 89.3 | 99.8 |  |
|  | COc1ccc(S(=O)(=O)SC2CCN(C(C(=O)C3CC3)c3ccccc3F)CC2)cc1 (stereo not drawn) [Example 12 (b), 1-(α-Cyclopropylcarbonyl-2-fluorobenzyl)-4-(4-methoxyphenylsulfonylthio)piperidine] | 19.2 | 93.9 | 100 |  |
| 87 to 100 | Cc1ccc([S+]([O-])SC2CCN(C(C(=O)C3CC3)c3ccccc3F)C2)cc1 (stereo not drawn) [Example 14, 1-(α-Cyclopropylcarbonyl-2-fluorobenzyl)-3-(4-methylphenylsulfinylthio)-pyrrolidine] |  |  |  |  |
|  | Cc1ccc([S+]([O-])SC2CCN(C(C(=O)C3CC3)c3ccccc3F)CC2)cc1 (stereo not drawn) [Example 13 (b), 1-(α-Cyclopropylcarbonyl-2-fluorobenzyl)-4-(4-methylphenylsulfinylthio)-piperidine] | 13.3 | 40 | 91.8 |  |

| Compound | melting point [°C] | inhibition at 10 µg/mL (Human Platelets; 10 μg/ml test compound) [%] | inhibition at 30 µg/mL (Human Platelets; 30 μg/ml test compound) [%] | inhibition at 100 µg/mL (Human Platelets; 100 μg/ml test compound) [%] | also measured |
| --- | --- | --- | --- | --- | --- |
| N[C@@H](CSSC1CCN(C(C(=O)C2CC2)c2ccccc2F)C/C1=C/C(=O)O)C(=O)O (stereo partly drawn) [Example 19, (Z)-4-[(R)-2-Amino-2-carboxyethyldisulfanyl]-3-carboxymethylidene-1-(α-cyclopropylcarbonyl-2-fluorobenzyl)piperidine] | 135 to 138 |  |  |  |  |
| CCOC(=O)/C=C1\CN(C(C(=O)C2CC2)c2ccccc2F)CCC1SS(=O)(=O)c1ccc(C)cc1 (stereo not drawn) [Example 6, (E)-1-(α-Cyclopropylcarbonyl-2-fluorobenzyl)-3-ethoxycarbonylmethylidene-4-(4-methylphenylsulfonylthio)piperidine] | 94 to 103 |  |  |  |  |
